We go through 21 molecules from patent US8859494B2, “Spirocyclically substituted 1,3-propane dioxide derivatives, processes for preparation thereof and use thereof as a medicament” (Sanofi, priority 2010, dated 2014).

T1 sequence (Q8K3T4 whole entry): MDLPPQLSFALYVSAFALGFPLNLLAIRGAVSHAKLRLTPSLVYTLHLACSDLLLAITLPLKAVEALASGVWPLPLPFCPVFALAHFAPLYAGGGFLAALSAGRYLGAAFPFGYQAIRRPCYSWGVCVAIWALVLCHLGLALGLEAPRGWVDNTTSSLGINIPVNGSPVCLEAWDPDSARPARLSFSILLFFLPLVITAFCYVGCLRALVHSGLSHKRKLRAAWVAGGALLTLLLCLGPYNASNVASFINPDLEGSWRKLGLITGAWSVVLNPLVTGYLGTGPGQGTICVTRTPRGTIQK

The assay addresses T1, GPCR GPR40 (Rattus norvegicus, UniProt Q8K3T4).
T1 construct: expressed in transfected cells; host or cells: HEK293
Description: In vitro FLIPR assay with recombinant cells which express the GPCR GPR40. The format is cell-based. The following applies: recombinant HEK293 cells expressing GPR40; agonist-induced change in intracellular Ca2+ (Fluo-4, FLIPR); 100% = 10 μM reference agonist linoleic acid. As to the method:
In Vitro FLIPR Assay with Recombinant Cells which Express the GPCR GPR40
Function-testing assays were performed by means of the FLIPR technique (“Fluorescence Imaging Plate Reader”, Molecular Devices Corp.). For this purpose, agonist-induced changes were determined in the intracellular concentration of Ca^2+ in recombinant HEK293 cells which expressed the GPCR GPR40.
For the studies, cells were sown into 96-well microtiter plates (60 000 cells/well) and left to grow overnight. The medium was removed and the cells were incubated in buffer which contains the fluorescent dye Fluo-4. After this loading with dye, the cells were washed, test substance was added and changes were measured in the intracellular Ca^2+ concentration in the FLIPR instrument. Results were presented as the percentage change relative to the control (0%: no test substance added; 100%: 10 μM reference agonist linoleic acid added) and used to calculate dose/effect curves, and EC50 values were determined.
In the case of `CC#CC(CC(=O)O)c1ccc(OCC2(COc3cccc(C(C)(C)C)c3)CC2)cc1` (stereo not drawn) [Example 1, 3-{4-[1-(3-tert-Butylphenoxymethyl)cyclopropylmethoxy]phenyl}hex-4-ynoic acid], the EC50 is 730 nM.

`CC#CC(CC(=O)O)c1ccc(OCC2(COc3ccc(C(F)(F)F)cc3)CC2)cc1` (stereo not drawn) [Example 2, 3-{4-[1-(4-Trifluoromethylphenoxymethyl)cyclopropylmethoxy]phenyl}hex-4-ynoic acid]: the EC50 came out at 370 nM.

Take `CC#CC(CC(=O)O)c1ccc(OCC2(COc3cccc(Cl)c3)CC2)cc1` (stereo not drawn) [Example 3, 3-{4-[1-(3-Chlorophenoxymethyl)cyclopropylmethoxy]phenyl}hex-4-ynoic acid]: the EC50 is 290 nM.

With `CC#CC(CC(=O)O)c1ccc(OCC2(COc3ccc(C(F)(F)F)cc3Cl)COC2)cc1` (stereo not drawn) [Example 4, 3-{4-[3-(2-Chloro-4-trifluoromethylphenoxymethyl)oxetan-3-ylmethoxy]phenyl}hex-4-ynoic acid], the EC50 was determined as 2550 nM.

Consider `CC#CC(CC(=O)O)c1ccc(OCC2(COc3cccc(C(C)(C)C)c3)CCC2)cc1` (stereo not drawn) [Example 5, 3-{4-[1-(3-tert-Butylphenoxymethyl)cyclobutylmethoxy]phenyl}hex-4-ynoic acid], for which the EC50 was 2560 nM.

Take `CC#CC(CC(=O)O)c1ccc(OCC2(COc3ccc(C(F)(F)F)cc3)CCC2)cc1` (stereo not drawn) [Example 6, 3-{4-[1-(4-Trifluoromethylphenoxymethyl)cyclobutylmethoxy]phenyl}hex-4-ynoic acid]: the EC50 was determined as 1320 nM.

As for `CC#CC(CC(=O)O)c1ccc(OCC2(COc3cccc(C)c3)CCC2)cc1` (stereo not drawn) [Example 7, 3-[4-(1-m-Tolyloxymethylcyclobutylmethoxy)phenyl]hex-4-ynoic acid], the EC50 was 1540 nM.

For `CC#CC(CC(=O)O)c1ccc(OCC2(COc3ccccc3)CCC2)cc1` (stereo not drawn) [Example 8, 3-[4-(1-Phenoxymethylcyclobutylmethoxy)phenyl]hex-4-ynoic acid], the EC50 came out at 450 nM.

As for `CC#CC(CC(=O)O)c1ccc(OCC2(COc3cc(C(F)(F)F)cc(C(F)(F)F)c3)CC2)cc1` (stereo not drawn) [Example 9, 3-{4-[1-(3,5-Bis(trifluoromethyl)phenoxymethyl)cyclopropylmethoxy]phenyl}hex-4-ynoic acid], the EC50 worked out at 1660 nM.

For the molecule `CC#CC(CC(=O)O)c1ccc(OCC2(COc3ccccc3)CC2)cc1` (stereo not drawn) [Example 10, 3-[4-(1-Phenoxymethylcyclopropylmethoxy)phenyl]hex-4-ynoic acid], the EC50 came to 70 nM.

In the case of `CC#CC(CC(=O)O)c1ccc(OCC2(COc3cccc(C)c3)CC2)cc1` (stereo not drawn) [Example 11, 3-[4-(1-m-Tolyloxymethylcyclopropylmethoxy)phenyl]hex-4-ynoic acid], the EC50 was 150 nM.

Consider `CC#CC(CC(=O)O)c1ccc(OCC2(COc3ccc(C#N)c(Cl)c3)CC2)cc1` (stereo not drawn) [Example 12, 3-{4-[1-(3-Chloro-4-cyanophenoxymethyl)cyclopropylmethoxy]phenyl}hex-4-ynoic acid], for which the EC50 is 140 nM.

In the case of `CC#CC(CC(=O)O)c1ccc(OCC2(COc3ccc(C(F)(F)F)nc3)CC2)cc1` (stereo not drawn) [Example 13, 3-{4-[1-(6-Trifluoromethylpyridin-3-yloxymethyl)cyclopropylmethoxy]phenyl}hex-4-ynoic acid], the concentration giving a half-maximal response (EC50) came to 710 nM.

Regarding `CC#CC(CC(=O)O)c1ccc(OCC2(COc3ccc(C(F)(F)F)cn3)CC2)cc1` (stereo not drawn) [Example 14, 3-{4-[1-(5-Trifluoromethylpyridin-2-yloxymethyl)cyclopropylmethoxy]phenyl}hex-4-ynoic acid], the EC50 was determined as 170 nM.

Regarding `CC#CC(CC(=O)O)c1ccc(OCC2(COc3ccc(C(F)(F)F)cc3Cl)CC2)cc1` (stereo not drawn) [Example 15, 3-{4-[1-(2-Chloro-4-trifluoromethylphenoxymethyl)cyclopropylmethoxy]phenyl}hex-4-acid], the EC50 was found to be 1580 nM.

Take `COC(CC(=O)O)c1ccc(OCC2(COc3ccc(C(F)(F)F)cn3)CC2)cc1` (stereo not drawn) [Example 16, 3-Methoxy-3-{4-[1-(5-trifluoromethylpyridin-2-yloxymethyl)cyclopropylmethoxy]phenyl}-propionic acid]: the EC50 is 2460 nM.

In the case of `CC#CC(CC(=O)O)c1ccc(OCC2(COc3ccccc3C)CC2)cc1` (stereo not drawn) [Example 18, 3-[4-(1-o-Tolyloxymethylcyclopropylmethoxy)phenyl]hex-4-ynoic acid], the EC50 came out at 60 nM.

On to `CC#CC(CC(=O)O)c1ccc(OCC2(COc3ccc(F)cc3)CC2)cc1` (stereo not drawn) [Example 19, 3-{4-[1-(4-Fluorophenoxymethyl)cyclopropylmethoxy]phenyl}hex-4-ynoic acid], for which the EC50 came to 70 nM.

Take `CC#CC(CC(=O)O)c1ccc(OCC2(COc3cccc(F)c3)CC2)cc1` (stereo not drawn) [Example 20, 3-{4-[1-(3-Fluorophenoxymethyl)cyclopropylmethoxy]phenyl}hex-4-ynoic acid]: the EC50 is 70 nM.

On to `CC#CC(CC(=O)O)c1ccc(OCC2(COc3ccccc3F)CC2)cc1` (stereo not drawn) [Example 21, 3-{4-[1-(2-Fluorophenoxymethyl)cyclopropylmethoxy]phenyl}hex-4-ynoic acid], for which the EC50 is 110 nM.

Turning to `CC#CC(CC(=O)O)c1ccc(OCC2(COc3ccc(F)c(Cl)c3)CC2)cc1` (stereo not drawn) [Example 22, 3-{4-[1-(3-Chloro-4-fluorophenoxymethyl)cyclopropylmethoxy]phenyl}hex-4-ynoic acid], the EC50 is 330 nM.

The term EC50 denotes the concentration at which the effect is half-maximal.
